This note sets out measurements from article PMC8394784, “Analogs of a Natural Peptaibol Exert Anticancer Activity in Both Cisplatin- and Doxorubicin-Resistant Cells and in Multicellular Tumor Spheroids” (International Journal of Molecular Sciences, 2021).

The structures appear in SMILES notation.

One data set deals with L-1236. The data set can be described thus: cells. As to conditions: L-1236, 24 h. The method, then: (§1) OvCa cells and fibroblasts were seeded in 96 well (10.0 × 10^3) the day before treatment to allow cell adherence. […] Half maximal inhibitory concentrations (IC50) were calculated using CalcuSyn software, v2.1 (Biosoft, Ferguson, MO, USA). Fold resistance (FR) was calculated as the ratio of the IC50 of drug-resistant cell line (KM-H2dx, HDLM-2dx, and A2780cis) to that of the respective parental cell line (KM-H2, HDLM-2, and A2780).

The next data set has as its system OVCAR5. The data set is described as follows: cells. The protocol: as §1
The test system of a further data set is L-428. The data set can be described thus: cells. As to conditions: L-428, 24 h. The protocol:
as §1

Another data set has as its system A2780. The data set can be described thus: cells. As to conditions: A2780, 24 h. The protocol:
as §1

For the next data set, the system named is SKOV3. The data set is described as follows: cells. The method, then: as §1
The next data set concerns HDLM-2. The data set is described as follows: cells. The following applies: HDLM-2, 24 h. The method, then: as §1
The subject of a further data set is KM-H2. The data set can be described thus: cells. The following applies: KM-H2, 24 h. The method, then: as §1
Data set [1] concerns KM-H2dx (doxorubicin-resistant clone of KM-H2). The data set is described as follows: cells. The following applies: for fold resistance (FR): ratio IC50 KM-H2dx / IC50 KM-H2. The method, then: (§2) Authenticated cHL-derived cell lines L-1236, L-428, KM-H2, and HDLM-2 were from DSMZ (Braunschweig, Germany). Doxorubicin-resistant KM-H2dx and HDLM-2dx cells were developed in our laboratory by continuous exposure of KM-H2 and HDLM-2 cells to 35 nM doxorubicin. HDLM-2dx and KM-H2dx cells were maintained in doxorubicin and cultured without the drug 72 h before use. All cell lines are here collectively called “cHL cells”. Authenticated OvCa cell lines A2780 and A2780cis were from Sigma-Aldrich, (Milano, Italy) SKOV3 (HTB-77) were obtained from the American Type Culture Collection (ATCC), OVCAR5 (NIH) were provided by Dr. Baldassarre (CRO, Aviano, Italy). A2780cis cells were maintained in 1 µM cisplatin and cultured without the drug for 72 h before use. […] Peripheral blood mononuclear cells (PBMCs) were obtained from healthy donor blood by density gradient centrifugation on a Ficoll-Paque PLUS (GE Healthcare); they were washed twice with PBS before use and cultured in RPMI-1640 medium containing 10% fetal bovine serum. Human dermal fibroblasts, a generous gift of Dr. Capuano [44], were maintained in Dulbecco′s Modified Eagle′s Medium (DMEM) high glucose (Gibco) plus 10% fetal bovine serum.
as §1

Data set [2] has as its system HDLM-2dx (doxorubicin-resistant clone of HDLM-2). The data set is described as follows: cells. The following applies: for fold resistance (FR): ratio IC50 HDLM-2dx / IC50 HDLM-2. The protocol: as §2, §1
The subject of data set [3] is A2780cis (cisplatin-resistant clone of A2780). The data set can be described thus: cells. As to conditions: for IC50: A2780cis, 24 h; for fold resistance (FR): ratio IC50 A2780cis / IC50 A2780. The method, then: as §2, §1
Another data set deals with A2780 and A2780cis. The data set is described as follows: K6-FITC uptake, time-lapse confocal microscopy with PI. In kind it is cell-based, human. The following applies: 30 µM K6-FITC, 37 °C. The method, then: (§3) The uptake of peptaibols was evaluated by confocal microscopy and flow cytometry using the fluorescent K6-FITC analog. For confocal microscopy, cells were plated onto glass bottom culture dishes and treated with K6-FITC (30 µM) and propidium iodide (PI) 2 µg/mL. K6-FITC uptake was monitored using confocal microscope in time-lapse xyzt acquisition mode (Leica DM IRE2) keeping cells at 37 °C and 5% CO2. To trace peptaibol penetration in spheroids, single four-day-old SKOV3-MCTs were incubated with K6-FITC (20 µM) and images acquired using confocal microscopy.

A further data set has as its system KM-H2 cells. The data set is described as above. The following applies: KM-H2, 30 µM K6-FITC, PI 2 µg/mL, 60 min of incubation, 37 °C. In kind it is cell-based, human. The protocol:
as §3

The subject of data set [4] is SKOV3-MCTSs. The data set can be described thus: K6-FITC penetration in spheroids, confocal microscopy. In kind it is cell-based, human. As to conditions: 20 µM K6-FITC, four-day-old single spheroids, confocal time-lapse. The method, then:
as §3

The test system of data set [5] is A2780 and HDLM-2 vs PBMCs and fibroblasts. The data set is described as follows: K6-FITC uptake by flow cytometry, tumor vs normal cells. In kind it is cell-based, human. As to conditions: 0.25–2.5 µM K6-FITC, 5, 30 and 120 min, three independent experiments. The protocol:
For flow cytometry, cells were treated with different concentrations of K6-FITC (0–2.5 µM). After 5, 30 and 120 min of incubation, cells were washed and evaluated for green fluorescence intensity by flow cytometry on a BD FACSCanto II flow cytometer. Annexin-V assay: cells were treated with peptaibols for 24 h, then stained for 15 min with FITC AnnexinV (Thermo Fisher Scientific, Monza, Italy) and 7-Amino-Actinomycin D (7AAD) (BD Pharmingen, Milano, Italy) and analyzed using flow cytometry. Data were analyzed using BD FACSDiva v.8.0.1 software (BD Biosciences, Milano, Italy).
On the technique in general: In flow cytometry, cells or beads pass a laser one at a time.

The subject of data set [6] is A2780, A2780cis, and KM-H2 cells. In kind it is cell-based, human. The following applies: 24 h. The method, then:
Supplemental Figure S6. Cytotoxic activity of K6-FITC. A2780, A2780cis, and KM-H2 cells were cultured with K6-FITC. After 24 hours cell viability was evaluated by MTT assay for A2780 and A2780cis and by MTS assay for KM-H2 cells. Results are mean and SD of three independent experiments. IC50 was calculated using Calcusyn software.
(1 picture or pasted object on this page, not shown here)

Data set [7] deals with human peripheral blood mononuclear cells (PBMCs). The data set is described as follows: Cytotoxicity in healthy cells, MTS assay. The following applies: 24 h, mean (SD). The protocol: (§4) Authenticated cHL-derived cell lines L-1236, L-428, KM-H2, and HDLM-2 were from DSMZ (Braunschweig, Germany). Doxorubicin-resistant KM-H2dx and HDLM-2dx cells were developed in our laboratory by continuous exposure of KM-H2 and HDLM-2 cells to 35 nM doxorubicin. HDLM-2dx and KM-H2dx cells were maintained in doxorubicin and cultured without the drug 72 h before use. All cell lines are here collectively called “cHL cells”. Authenticated OvCa cell lines A2780 and A2780cis were from Sigma-Aldrich, (Milano, Italy) SKOV3 (HTB-77) were obtained from the American Type Culture Collection (ATCC), OVCAR5 (NIH) were provided by Dr. Baldassarre (CRO, Aviano, Italy). A2780cis cells were maintained in 1 µM cisplatin and cultured without the drug for 72 h before use. […]
as §1

For data set [8], the system named is SKOV3-MCTSs. The data set is described as follows: SKOV3 spheroid (MCTS) volume. Format: cell-based, human. The following applies: 25 µM, 3 days of treatment, four-day old single spheroids. The protocol: To obtain the 3 dimensional (3D) SKOV3-MCTSs, cells were cultured in non-adherent conditions on plates coated twice with 20 mg/mL of poly(2-hydroxyethyl methacrylate) (poly-HEMA; Sigma) in 95% ethanol. Single spheroids with defined size were generated by culturing 1.0 × 10^3 SKOV3 cells onto poly-HEMA-coated 96-well for 4 days. Then, single SKOV3-MCTSs were treated with increasing concentrations of peptaibols (0–25 µM). SKOV3-MCTSs size was measured and photographed up to 72 h after treatment initiation using an inverted microscope (Eclipse TS/100, Nikon) with the DS Camera Control Unit DS-L2 photo micrographic system. SKOV3-MCTSs volumes were calculated using the formula: (width^2 × length × 3.14)/6 [47].

For data set [9], the system named is SKOV3-MCTSs. The data set can be described thus: SKOV3 spheroid cell viability, PrestoBlue. Format: cell-based, human. The following applies: 24 h treatment. An excerpt: Multiple SKOV3-MCTSs were obtained by seeding 10.0 × 10^3 cells in non-adherent conditions.
The next data set relates to human fibroblasts. The data set is described as follows: Cytotoxicity in healthy cells, MTT assay. The following applies: healthy human dermal fibroblasts, 24 h, mean (SD). The method, then: as §4, §1

In the case of `N.N.[Cl][Pt][Cl]` [Cisplatin, cisplatin], the IC50 was found to be 0.8 µM with L-1236 (MTS, mean (SD)); 7.7 µM with OVCAR5 (OVCAR5, 24 h, MTT, mean (SD)); 0.5 µM in the data set with L-428 (MTS, mean (SD)); 1.3 µM with A2780 (MTT, mean (SD)); 7.7 µM in the data set with SKOV3 (SKOV3, 24 h, MTT, mean (SD)); 1.3 µM in the data set with HDLM-2 (MTS, mean (SD)). The IC50 with KM-H2 (MTS, mean (SD)) was 0.5 µM; in data set [1] (KM-H2dx, 24 h, MTS, mean (SD)), 1.2 µM; in [2] (HDLM-2dx, 24 h, MTS, mean (SD)), 4 µM; in data set [3] (MTT, mean (SD)), 10.4 µM. The “fold resistance (FR)” value is listed as 2.6 in [1], 3.11 in data set [2] and 8 in [3].

Take `COc1cccc2c1C(=O)c1c(O)c3c(c(O)c1C2=O)C[C@@](O)(C(=O)CO)C[C@@H]3O[C@H]1C[C@H](N)[C@H](O)[C@H](C)O1` [Doxorubicin]: the IC50 was 0.0464 µM in the data set on L-1236 (Homo sapiens); 0.47 µM with OVCAR5 (Homo sapiens, OVCAR-5, 24 h); 0.0184 µM in the data set on L-428 (Homo sapiens); 0.0204 µM in the data set on A2780 (Homo sapiens); 0.13 µM with SKOV3 (Homo sapiens, SK-OV-3, 24 h); 0.0405 µM with HDLM-2 (Homo sapiens). The IC50 with KM-H2 (Homo sapiens) was 0.0221 µM; in [1] (Homo sapiens, KM-H2, 24 h), 0.202 µM; in data set [2] (Homo sapiens, HDLM-2, 24 h), 0.368 µM; in data set [3] (Homo sapiens) it was 0.116 µM. Moreover, the “fold resistance (FR)” value in data set [1] stood at 9; in data set [2], 9; in [3], 5.6.

With `CCCCCCCC(=O)NC(C)(C)C(=O)NCC(=O)N[C@@H](CC(C)C)C(=O)NC(C)(C)C(=O)NCC(=O)N[C@@H](CCCCN)C(=O)N[C@@H](CC(C)C)C(=O)NC(C)(C)C(=O)NCC(=O)N[C@H](C(=O)N[C@@H](CC(C)C)C(=O)NCCNC(=S)Nc1ccc2c(c1)C(=O)OC21c2ccc(O)cc2Oc2cc(O)ccc21)[C@@H](C)CC` [K6-FITC], the uptake entry in the data set with A2780 and A2780cis is “rapidly taken up in both cell lines”. Besides, the “uptake and PI staining” value in the data set on KM-H2 cells is recorded as “all cells were double stained”. Moreover, in the data set with SKOV3-MCTSs [4], the “penetration into SKOV3-MCTSs” value is “rapidly and deeply penetrated”. In addition, in data set [5], the “uptake (mean fluorescence intensity) by tumor cells compared with normal cells” value was “in a higher quantity and in a faster way”. Further, the IC50 was 24.5 µM with A2780 (MTT, mean (SD)); 30 µM in the data set on KM-H2 (MTS, mean (SD)); 29 µM in data set [3] (MTT, mean (SD)); about 30 µM in data set [6].

Turning to `CCCCCCCC(=O)NC(C)(C)C(=O)NCC(=O)N[C@@H](CC(C)C)C(=O)NC(C)(C)C(=O)NCC(=O)N[C@@H](CCCCN)C(=O)N[C@@H](CC(C)C)C(=O)NC(C)(C)C(=O)NCC(=O)N[C@H](C(=O)N[C@H](CO)CC(C)C)[C@@H](C)CC` [K6-Lol], the IC50 in data set [7] was 7.1 (0.4) µM; in the data set with L-1236 (MTS, mean (SD)), 11.7 µM; in the data set on OVCAR5 (OVCAR5, 24 h, MTT, mean (SD)), 7.5 µM; in the data set with L-428 (MTS, mean (SD)), 8.9 µM; in the data set with A2780 (MTT, mean (SD)), 7.9 µM; with SKOV3 (SKOV3, 24 h, MTT, mean (SD)), 8.4 µM. Also, the IC50 with HDLM-2 (MTS, mean (SD)) was 12.6 µM; in the data set with KM-H2 (MTS, mean (SD)), 7.5 µM; in the data set with human fibroblasts, 15.0 (1.4) µM; in data set [1] (KM-H2dx, 24 h, MTS, mean (SD)) it was 7.2 µM; in data set [2] (HDLM-2dx, 24 h, MTS, mean (SD)), 11.9 µM; in data set [3] (MTT, mean (SD)) it was 9.1 µM. Further, in the data set with SKOV3-MCTSs [8], the SKOV3-MCTS volume result was “completely eliminated them”. Further, in the data set on SKOV3-MCTSs [9], the SKOV3-MCTS cell viability entry is “dose-dependent decrease”. Further, the “fold resistance (FR)” value in [1] and in [2] was about 1 in each case.
